From patent publication US12209073B2, “Polymorphs of a dihydroorotate dehydrogenase (DHOD) inhibitor” (KIORA PHARMACEUTICALS GmbH, priority 2022, dated 2025)
Values after ≈ are worked out from the molar mass of the structure shown. “Also recorded” adds a separate entry of the source. One block for each molecule: values may come before it.

Tests used:
[1] = Thermodynamic solubility in FaSSIF; type: physicochemical; details: for XRPD post-TS (residual solid): after thermodynamic solubility in FaSSIF
Method: Thermodynamic Aqueous Solubility. Aqueous solubility was determined by suspending sufficient compound in relevant media to give a maximum final concentration of ≥10 mg/ml of the parent free-form of the compound. The suspension was equilibrated at 25° C., on a Heidolph plate shaker set to 750 rpm for 24 hours. The pH of the saturated solution was then measured, and the suspension filtered through a glass fiber C filter (particle retention 1.2 μm) and diluted appropriately. Quantitation was by HPLC with reference to a standard solution of approximately 0.15 mg/ml in DMSO. Different volumes of the standard, diluted and undiluted sample solutions were injected. The solubility was calculated using the peak areas determined by integration of the peak found at the same retention time as the principal peak in the standard injection. [table] In addition to the competitive slurrying, Form A and Form B were both submitted to thermodynamic solubility measurements in FaSSIF media, as well as IDR in pH 7.4 phosphate buffer. The results are shown in Table 19 The full reports for both measurements can be found in Appendix 2—Analytical Service Reports.

[2] = Intrinsic dissolution rate (IDR) in pH 7.4 phosphate buffer; type: physicochemical; details: for XRPD post-IDR: after IDR in pH 7.4 phosphate buffer; for Dissolution rate (pH 7.4 buffer): pH 7.4 phosphate buffer
Text: In addition, the thermodynamic solubility and the IDR of the two forms was compared in selected media. In addition to the competitive slurrying, Form A and Form B were both submitted to thermodynamic solubility measurements in FaSSIF media, as well as IDR in pH 7.4 phosphate buffer. The results are shown in Table 19 The full reports for both measurements can be found in Appendix 2—Analytical Service Reports.

[3] = Gravimetric Vapor Sorption (GVS); type: physicochemical; details: for Hygroscopicity (GVS): 0-90% RH; for Hygroscopicity (GVS) / GVS mass uptake, equivalent of water / GVS mass uptake: 25° C.; for XRPD Post-GVS: after GVS isotherm; for GVS mass uptake, equivalent of water / GVS mass uptake: between 0 and 90% RH
Method: Gravimetric Vapor Sorption (GVS). Sorption isotherms were obtained using a SMS DVS Intrinsic moisture sorption analyzer, controlled by DVS Intrinsic Control software. The sample temperature was maintained at 25° C. by the instrument controls. The humidity was controlled by mixing streams of dry and wet nitrogen, with a total flow rate of 200 ml/min. The relative humidity was measured by a calibrated Rotronic probe (dynamic range of 1.0-100% RH), located near the sample. The weight change, (mass relaxation) of the sample as a function of % RH was constantly monitored by a microbalance (accuracy ±0.005 mg). Typically, 5-30 mg of sample was placed in a tared mesh stainless steel basket under ambient conditions. The sample was loaded and unloaded at 40% RH and 25° C. (typical room conditions). A moisture sorption isotherm was performed as outlined below (2 scans per complete cycle). The standard isotherm was performed at 25° C. at 10% RH intervals over a 0-90% RH range. Typically, a double cycle (4 scans) was carried out. Data analysis was carried out within Microsoft Excel using the DVS Analysis Suite. [table] The sample was recovered after completion of the isotherm and re-analyzed by XRPD.

[4] = Accelerated storage stability (XRPD & HPLC); type: physicochemical
Method: Chemical Purity Determination by HPLC. Purity analysis was performed on an Agilent HP1100/Infinity II 1260 series system equipped with a diode array detector and using OpenLAB software. The full method details are provided below in Table 12: [table] HPLC indicated the material to have a purity of 99.6% (FIG. 12A). […] The sample was left for an additional 22 days (total 30 days storage) and re-analyzed by XRPD, appearing as Form A, lacking the additional peaks previously observed (FIG. 13B). It was therefore possible that contamination of sample on the instrument in the previous 8-day timepoint was the likely cause of the additional peaks, rather than a form chance or degradation. […] (92 J/g) (FIG. 16). PLM and SEM images indicate the particles to be a series of spherical agglomerates (ca. 50 to 100 μm in diameter), which consist of small (<10 μm) plate-like crystals (FIGS. 17A-17B). HPLC analysis indicated the sample maintained a high purity of 99.5% (FIG. 18A). […] There is a small hysteresis between adsorption and desorption. The sample was unchanged by XRPD post-GVS analysis. […]

[5] = Competitive slurrying of Form A and Form B; type: physicochemical; details: competitive slurrying of Form A and Form B in a range of solvents at 5, 25 and 50° C.
Method: The aim of this work was to investigate the order of stability of the scaled-up Form A and Form B via competitive slurrying of the materials in a range of solvents at 5° C., 25° C. and 50° C.
The proposed solvents were aliquoted (1 ml) into HPLC vials and held at 5° C., 25° C. and 50° C. respectively, equilibrating at 300 rpm. […] The saturated solutions were allowed to equilibrate overnight.
Approximately 300 mg of Form B, prepared as described previously in Example 5, and the Form A were added to a 20 ml scintillation vial. The vial was subjected to turbula mixing for over 2 hours to ensure the mixture was homogenous. Approximately 30 mg of a mixture of Form A and Form B was added to a series HPLC vials. The vials were placed at 5, 25 and 50° C., 300 rpm. The suspensions prepared previously were filtered through a PTFE syringe directly into each vial to suspend the prepared form mixture in a saturated solution of the target solvent. Polymorph turnover was investigated by taking a 30-50 μl aliquot of the suspension and analyzing by XRPD.

pKa of PP-001 = type: physicochemical
Text: (§1) The general tested characteristics of 3-(2,3,5,6-tetrafluoro-3′-trifluoromethoxy-biphenyl-4-ylcarbamoyl)-thiophene-2-carboxylic acid (PP-001) are shown below in Table 8.

[6] = LogP (measured) of PP-001; type: physicochemical
Text: as §1

[7] = Solubility in 50 mM phosphate buffer; type: physicochemical
Text: as §1

[8] = Stability at pH 2, pH 7.4 and pH 8.5; type: physicochemical
Text: as §1

[9] = Stability in artificial gastric juice, simulated intestinal fluid and PBS; type: in vitro ADME
Text: as §1

[10] = Stability in human plasma; type: in vitro ADME
Text: as §1

Oral bioavailability = details: in vivo, depending on formulation used
Text: as §1

[11] = Solubility and solvent selection assessment; type: physicochemical
Method: PP-001 (ca. 20 mg, Batch #1) was treated with increasing aliquots of solvent until either a clear solution or maximum of 80 vol ([…]) of solvent was added. Samples were left for […] at 25° C., 300 rpm, after each solvent addition before observations were recorded. Where possible, samples were heated to 50° C. and further observations were taken. Solutions at 25 or 50° C. were cooled to 5° C. at 0.1° C./min, 300 rpm and held overnight. Any suspensions at 50° C. were subjected to maturation cycling between RT/50° C. (4 hours per cycle). Solvents unsuitable for heating to 50° C. or cooling to 5° C. were subjected to evaporation, antisolvent addition at RT or maturation at RT, depending on the solvent.
After 24 h, any solutions at 5° C. were subjected to evaporation at RT with the lid removed. Samples subjected to evaporation were analyzed once dry. The remaining suspensions were left for 3 days at conditions before being extracted using an SPE cartridge and frit under positive pressure filtration.

[12] = Solvent assessment for lyophilization; type: physicochemical; details: maximum of 60 vol
Method: Preparation and solubility of amorphous PP-001. PP-001 was treated with increasing aliquots of solvent until a maximum of 60 vol (1800 μl) was added in a HPLC vial.
Samples that formed solutions were positive pressure filtered using a PTFE syringe filter to remove any remaining solid particulates. The solutions were then flash frozen in a dry ice/acetone bath and lyophilized overnight to remove the solvent. Solids isolated post-lyophilization were analyzed by XRPD and characterized.

- solubility thermodynamic at 24 h ([1]; FaSSIF, 25 °C, pH 6.4, fassif, thermodynamic from solid, FaSSIF, 25° C., 24 hours, read-out: Thermodynamic solubility (TS) in FaSSIF): 0.76 mg/mL (≈ 1590 µM)
- XRPD post-TS (residual solid) [1]: Unchanged, residual
- XRPD post-IDR [2]: Unchanged
- Dissolution rate (pH 7.4 buffer) [2]: 0.071 mg/min/cm^2
- Hygroscopicity (GVS) ([3]; listed as PP-001 Form A): mass uptake. Sample is non- hygroscopic
- XRPD Post-GVS ([3]; listed as PP-001 Form A): Unchanged
- GVS mass uptake, equivalent of water [3]: 0.03 mol
- GVS mass uptake ([3]; listed as PP-001 Form A): 0.12 wt %
- XRPD after storage ([4]; 40° C./75% RH, 8 days, listed as PP-001 Form A): Unchanged
SMILES: O=C(Nc1c(F)c(F)c(-c2cccc(OC(F)(F)F)c2)c(F)c1F)c1ccsc1C(=O)O [Form A, 3-(2,3,5,6-tetrafluoro-3′-trifluoromethoxy-biphenyl-4-ylcarbamoyl)-thiophene-2-carboxylic acid]
- XRPD post-TS (residual solid) ([1]; listed as PP-001 Form A): largely unchanged; also recorded: XRPD unchanged in form plus NaCl reference peaks
- XRPD after storage ([4]; 25° C./97% RH, 8 days, listed as PP-001 Form A): a small peak was gained at 8.1 2θ angle and a loss of a small peak at 17.6 2θ angle; also recorded: Small peak gain at 8.1 2Θ and a loss of small peaket 17.6
- Relative thermodynamic stability of the forms [5]: thermodynamically more stable form; also recorded: preferred form over all conditions and solvents tested

- Thermodynamic solubility (TS) in FaSSIF ([1]; FaSSIF, 25° C., 24 hours): 0.93 mg/mL
- XRPD post-TS (residual solid) [1]: Unchanged, residual
- XRPD post-IDR [2]: Unchanged
- Dissolution rate (pH 7.4 buffer) [2]: 0.15 mg/min/cm^2
- Hygroscopicity (GVS) [3]: non-hygroscopic
- XRPD Post-GVS [3]: unchanged
- XRPD Post-GVS ([3]; listed as PP-001 Form B): Unchanged
- GVS mass uptake [3]: 0.10 wt %
- GVS mass uptake, equivalent of water [3]: 0.03 mol
- GVS mass uptake ([3]; listed as PP-001 Form B): 0.10 wt %
- HPLC purity after storage ([4]; 25° C./97% RH, 7 days): 99.4%
- XRPD after storage ([4]; 25° C./97% RH, 7 days): no observable changes
- XRPD after storage ([4]; 25° C./97% RH, 7 days, listed as PP-001 Form B): Unchanged
- HPLC purity after storage ([4]; 40° C./75% RH, 7 days): 99.6%
- XRPD after storage ([4]; 40° C./75% RH, 7 days): no observable changes
- XRPD after storage ([4]; 40° C./75% RH, 7 days, listed as PP-001 Form B): Unchanged
SMILES: O=C(Nc1c(F)c(F)c(-c2cccc(OC(F)(F)F)c2)c(F)c1F)c1ccsc1C(=O)O [Form B, 3-(2,3,5,6-tetrafluoro-3′-trifluoromethoxy-biphenyl-4-ylcarbamoyl)-thiophene-2-carboxylic acid]

- pKa (pKa of PP-001): 2.23
- logP [6]: 4.19
- solubility ([7]; pH 4, aqueous buffer): 0.0014 mg/mL (≈ 2.92 µM)
- solubility ([7]; pH 7.4, aqueous buffer): 0.854 mg/mL (≈ 1780 µM)
- solubility ([7]; pH 9, aqueous buffer): 0.833 mg/mL (≈ 1740 µM)
- bioavailability (Oral bioavailability): 15 to 30%
- Solubility in solvents ([11]; 25° C., dissolution in volumes <80 vol, in 15 of the solvents tested): good solubility
- Solubility in solvents ([11]; 50° C., IPA, 1-propanol, ACN, MeOH:water (3%), MeOH:water (5%), EtOH:water (5%), IPA:water (5%) and IPA:water (25%)): Clear solutions
- Solubility in solvents ([11]; aprotic, polar solvents such as THF, DMSO and acetone): higher solubility
- Solubility in solvents ([11]; heptane, toluene, chloroform and water, up to 80 vol, heated to 50° C.): remained suspensions
- Solubility for lyophilization ([12]; 1,4-dioxane): soluble
- Solubility for lyophilization ([12]; THF:water (70:30)): soluble
SMILES: O=C(Nc1c(F)c(F)c(-c2cccc(OC(F)(F)F)c2)c(F)c1F)c1ccsc1C(=O)O [PP-001, 3-(2,3,5,6-tetrafluoro-3′-trifluoromethoxy-biphenyl-4-ylcarbamoyl)-thiophene-2-carboxylic acid]
- Stability (stable for) ([8]; pH 2 (HCl)): Stable for >16 h at pH 2 (HCl), pH 7.4 (trisbuffer),
- Stability (stable for) ([8]; pH 7.4 (tris buffer)): Stable for >16 h at pH 2 (HCl), pH 7.4 (trisbuffer),
- Stability (stable for) ([8]; pH 8.5 (tris buffer)): Stable for >16 h at pH 2 (HCl), pH 7.4 (trisbuffer),
- Stability (stable for) ([9]; PBS pH 7.4): Stable for >6 h in artificial gastric juice, simulated
- Stability (stable for) ([9]; artificial gastric juice): Stable for >6 h in artificial gastric juice, simulated
- Stability (stable for) ([9]; simulated intestinal fluid): Stable for >6 h in artificial gastric juice, simulated
- Stability (stable for) [10]: Stable for >6 h in artificial gastric juice, simulated
